Measurements as given in article PMC4361900 (Journal of medicinal chemistry, 2013).

How the values were obtained:
[1] = target: T1, MAO B (Homo sapiens, UniProt P27338); experiment: MAO B inhibition, kynuramine fluorescence assay; assay type: biochemical; settings: for Inhibition of MAO B, % inhibition @ conc.: @ 500 µM
T1 sequence (P27338 1-520): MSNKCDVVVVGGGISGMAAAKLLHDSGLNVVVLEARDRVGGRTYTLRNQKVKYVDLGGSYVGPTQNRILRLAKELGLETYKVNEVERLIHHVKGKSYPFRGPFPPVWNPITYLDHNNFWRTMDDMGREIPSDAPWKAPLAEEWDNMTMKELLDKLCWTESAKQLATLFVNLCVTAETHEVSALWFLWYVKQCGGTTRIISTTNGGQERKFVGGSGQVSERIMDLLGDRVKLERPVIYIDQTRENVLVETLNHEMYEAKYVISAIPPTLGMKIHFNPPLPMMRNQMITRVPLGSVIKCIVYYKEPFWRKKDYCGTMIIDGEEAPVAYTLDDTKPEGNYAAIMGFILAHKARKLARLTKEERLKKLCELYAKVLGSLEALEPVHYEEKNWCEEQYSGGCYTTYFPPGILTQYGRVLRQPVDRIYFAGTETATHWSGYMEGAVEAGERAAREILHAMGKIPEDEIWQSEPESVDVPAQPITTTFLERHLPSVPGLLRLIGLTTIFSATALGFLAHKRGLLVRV

[2] = target: T2, MAO A (Homo sapiens, UniProt P21397); experiment: MAO A inhibition, kynuramine fluorescence assay; assay type: biochemical
T2 sequence (P21397 1-527): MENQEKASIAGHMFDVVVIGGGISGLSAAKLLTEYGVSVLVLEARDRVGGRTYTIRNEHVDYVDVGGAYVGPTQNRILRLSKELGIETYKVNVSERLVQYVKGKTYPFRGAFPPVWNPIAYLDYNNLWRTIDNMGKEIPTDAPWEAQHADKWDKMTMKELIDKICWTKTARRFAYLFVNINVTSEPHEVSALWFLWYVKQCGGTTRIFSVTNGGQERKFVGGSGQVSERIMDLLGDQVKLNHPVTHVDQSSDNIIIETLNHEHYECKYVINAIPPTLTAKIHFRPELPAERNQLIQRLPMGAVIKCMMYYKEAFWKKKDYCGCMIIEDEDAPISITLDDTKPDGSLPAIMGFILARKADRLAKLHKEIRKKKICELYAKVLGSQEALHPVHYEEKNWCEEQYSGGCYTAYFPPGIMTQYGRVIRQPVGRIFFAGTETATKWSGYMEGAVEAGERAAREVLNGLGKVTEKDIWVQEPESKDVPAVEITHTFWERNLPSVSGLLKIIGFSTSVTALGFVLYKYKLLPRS

[3] = Solubility in cell culture media; assay type: physicochemical
[4] = system: H3K4me2 in MCF7 cells; experiment: Western blot of H3K4 dimethylation in MCF7 cells; assay type: cell-based; settings: 24 hours incubation
[5] = target: T3, LSD1 (Homo sapiens, UniProt O60341); experiment: LSD1 in-vitro inhibition, horseradish peroxidase; assay type: biochemical; settings: for Inhibition of LSD1, % inhibition @ conc.: @ 100 µM
[6] = target: T3, LSD1; settings: MAO inhibitors; cited from earlier work

C#CCNCCCC[C@H](NC(=O)c1ccccc1)C(=O)OC(C)(C)C [1a]
Inhibition of MAO B, % inhibition @ conc. [1]: n.i. ^a @ 500 µM | Inhibition of MAO A, % inhibition @ conc. ([2]; @ 100 µM): n.i. @ 100 µM

C#CCN(C)CCCC[C@H](NC(=O)OCc1ccccc1)C(=O)OCc1ccccc1 [2b]
Inhibition of MAO B, % inhibition @ conc. [1]: n.i. @ 500 µM

C#CCN(C)CCCOc1cccc(NC(=O)c2ccccc2)c1 [4b]
Solubility in cell culture media [3]: soluble | H3K4 dimethylation level (western blot) [4]: increased levels of H3K4 dimethylation

C#CCNCC(O)COc1ccc(-c2ccccc2)cc1 (stereo not drawn) [5a, 3-(Prop-2-ynylamino)-2-hydroxy-1-(biphenyl-4-yloxy)propane]
Solubility in cell culture media [3]: soluble | H3K4 dimethylation level (western blot) [4]: increased levels of H3K4 dimethylation

C#CCN(C)CC(O)COc1ccc(-c2ccccc2)cc1 (stereo not drawn) [5b]
Inhibition of MAO A, % inhibition @ conc. ([2]; @ 10 µM): n.i. @ 10 µM

C#CCN(C)CC(O)COc1ccc2ccccc2c1 (stereo not drawn) [5d]
MAO-B inhibition in words [1]: only limited inhibition

C#CCNCC(O)COc1ccc(-c2ccc(Br)cc2)cc1 (stereo not drawn) [5i]
Inhibition of LSD1, % inhibition @ conc. [5]: n.i. @ 100 µM

C#CCNCC(O)COc1ccc(-c2ccc(Cl)cc2Cl)cc1 (stereo not drawn) [5j]
Inhibition of LSD1, % inhibition @ conc. [5]: n.i. @ 100 µM

C#CCNCC(O)COc1ccc(-c2cc(Cl)cc(Cl)c2)cc1 (stereo not drawn) [5k]
Inhibition of LSD1, % inhibition @ conc. [5]: n.i. @ 100 µM

C#CCN(C)CC(O)COc1ccc(C(=O)OC)cc1 (stereo not drawn) [5l]
Inhibition of LSD1, % inhibition @ conc. [5]: n.i. @ 100 µM

C#CCNCC(O)COc1ccc(C(=O)OC)cc1 (stereo not drawn) [5m]
Inhibition of LSD1, % inhibition @ conc. [5]: n.i. @ 100 µM

C#CCN(C)CC(O)COc1ccc(CC(=O)OC)cc1 (stereo not drawn) [5n]
Inhibition of LSD1, % inhibition @ conc. [5]: n.i. @ 100 µM

C#CCNCC(O)COc1ccc(CC(=O)OC)cc1 (stereo not drawn) [5o]
Inhibition of LSD1, % inhibition @ conc. [5]: n.i. @ 100 µM

C#CCN(C)CC(O)COc1ccc(CCC(=O)OC)cc1 (stereo not drawn) [5p]
Inhibition of LSD1, % inhibition @ conc. [5]: n.i. @ 100 µM

C#CCNCC(O)COc1ccc(C(N)=O)cc1 (stereo not drawn) [5q]
Inhibition of LSD1, % inhibition @ conc. [5]: n.i. @ 100 µM

C#CCN(C)CC(O)COc1ccc(C(N)=O)cc1 (stereo not drawn) [5r]
Inhibition of LSD1, % inhibition @ conc. [5]: n.i. @ 100 µM

C#CCNCC(O)CNc1ccc(-c2ccccc2)cc1 (stereo not drawn) [6a]
LSD1 inhibition in words [5]: inactive | Inhibition of LSD1, % inhibition @ conc. [5]: n.i. @ 100 µM

C#CCNCC(O)CN(C)c1ccc(-c2ccccc2)cc1 (stereo not drawn) [6b, 1-(N-Methyl-4-phenylanilino)-3-(prop-2-ynylamino)propan-2-ol]
LSD1 inhibition in words [5]: inactive | Inhibition of LSD1, % inhibition @ conc. [5]: n.i. @ 100 µM

OC(CNC1CC1)COc1ccc(-c2ccccc2)cc1 (stereo not drawn) [7a]
Inhibition of LSD1, % inhibition @ conc. [5]: n.i. @ 100 µM

OC(CNC1CC1)COc1ccc2ccccc2c1 (stereo not drawn) [7b]
Inhibition of LSD1, % inhibition @ conc. [5]: n.i. @ 100 µM

C#CCN(C)[C@H](C)Cc1ccccc1 [deprenyl]
Inhibitory activity on LSD1 [6]: millimolar range

C#CCN(C)Cc1ccccc1 [pargyline]
Inhibitory activity on LSD1 [6]: millimolar range
